Columns and labels:
Type in all cases: in vivo
Spodoptera eridania = experiment: Southern armyworm (Spodoptera eridania) 2nd instar larvae, sprayed lima bean plant test; conditions: 96 h, 4 days after treatment, read-out: mortality in comparison with untreated controls
Procedure: B.4. Southern armyworm (Spodoptera eridania), 2nd instar larvae
The active compounds were formulated in cyclohexanone as a 10,000 ppm solution supplied in tubes. The tubes were inserted into an automated electrostatic sprayer equipped with an atomizing nozzle and they served as stock solutions for which lower dilutions were made in 50% acetone:50% water (v/v). A nonionic surfactant (Kinetic®) was included in the solution at a volume of 0.01% (v/v).
Lima bean plants (variety Sieva) were grown 2 plants to a pot and selected for treatment at the 1st true leaf stage. Test solutions were sprayed onto the foliage by an automated electrostatic plant sprayer equipped with an atomizing spray nozzle. The plants were dried in the sprayer fume hood and then removed from the sprayer. Each pot was placed into perforated plastic bags with a zip closure. About 10 to 11 armyworm larvae were placed into the bag and the bags zipped closed. Test plants were maintained in a growth room at about 25° C. and about 20-40% relative humidity for 4 days, avoiding direct exposure to fluorescent light (24 hour photoperiod) to prevent trapping of heat inside the bags. Mortality and reduced feeding were assessed 4 days after treatment, compared to untreated control plants.

Plutella xylostella = experiment: Diamond back moth (Plutella xylostella) cabbage leaf dip test, larval mortality; conditions: foliar, 3rd instar larvae, 72 hours after treatment, read-out: mortality in comparison with untreated controls
Procedure: B.2. Diamond back moth (Plutella xylostella)
The active compound is dissolved at the desired concentration in a mixture of 1:1 (vol:vol) distilled water: acetone. Surfactant (Alkamuls® EL 620) is added at a rate of 0.1% (vol/vol). The test solution is prepared at the day of use.
Leaves of cabbage were dipped in test solution and air-dried. Treated leaves were placed in petri dish enlined with moist filter paper and inoculated with ten 3rd instar larvae. Mortality was recorded 72 hours after treatment. Feeding damages were also recorded using a scale of 0-100%.

Bemisia argentifolii = experiment: Silverleaf whitefly (Bemisia argentifolii) adults, sprayed cotton plant test; conditions: 72 h, 3 days after treatment, read-out: mortality in comparison with untreated controls
Text: B.3 Silverleaf whitefly (Bemisia argentifolii) (adults)
The active compounds were formulated in cyclohexanone as a 10,000 ppm solution supplied in tubes. The tubes were inserted into an automated electrostatic sprayer equipped with an atomizing nozzle and they served as stock solutions for which lower dilutions were made in 50% acetone:50% water (v/v). A non-ionic surfactant (Kinetic®) was included in the solution at a volume of 0.01% (v/v).
Cotton plants at the cotyledon stage (one plant per pot) were sprayed by an automated electrostatic plant sprayer equipped with an atomizing spray nozzle. The plants were dried in the sprayer fume hood and then removed from the sprayer. Each pot was placed into a plastic cup and about 10 to 12 whitefly adults (approximately 3-5 days old) were introduced. The insects were collected using an aspirator and a nontoxic Tygon® tubing connected to a barrier pipette tip. The tip, containing the collected insects, was then gently inserted into the soil containing the treated plant, allowing insects to crawl out of the tip to reach the foliage for feeding. Cups were covered with a reusable screened lid. […] Mortality was assessed 3 days after treatment, compared to untreated control plants.

Anthonomus grandis = experiment: Boll weevil (Anthonomus grandis) microtiter plate diet test, egg and larval mortality; conditions: 120 h, egg and larval mortality after 5 days, read-out: mortality in comparison with untreated controls
Procedure: B.1. Boll weevil (Anthonomus grandis)
For evaluating control of boll weevil (Anthonomus grandis) the test unit consisted of 96-wellmicrotiter plates containing an insect diet and 5-10 A. grandis eggs.
The compounds were formulated using a solution containing 75% v/v water and 25% v/v DMSO. Different concentrations of formulated compounds were sprayed onto the insect diet at 5 μl, using a custom-built micro atomizer, at two replications.
After application, microtiter plates were incubated at about 25+1° C. and about 75+5% relative humidity for 5 days. Egg and larval mortality was then visually assessed.

CO/N=C(\C)CC1CSc2n(C)c(=O)c(-c3ccccc3)c([O-])[n+]21 (stereo not shown) [C-1, 3-[(2E)-2-methoxyiminopropyl]-8-methyl-7-oxo-6-phenyl-2,3-dihydrothiazolo[3,2-a]pyrimidin-4-ium-5-olate]
> 75%: mortality at 500 ppm (Spodoptera eridania) | mortality at 500 ppm (Plutella xylostella) | mortality at 500 ppm (Bemisia argentifolii) | mortality at 800 ppm (Anthonomus grandis)

Reference: patent US20230031024A1, “SUBSTITUTED PYRIMIDINIUM COMPOUNDS FOR COMBATING ANIMAL PESTS” (BASF SE, priority 2018, published 2023)
